In patent US20240216369A1, “THE USE OF A SPLICING MODULATOR FOR A TREATMENT SLOWING PROGRESSION OF HUNTINGTON'S DISEASE” (Novartis AG, priority 2019, published 2024):

Assays:
HTT transcript = test: In vitro evaluation in SH-SY5Y cells: HTT transcript by quantitative PCR; type: cell-based, human; conditions: 24 hours
Protocol: Cultured human neuroblastoma (SH-SY5Y cell line) cells were treated at doses ranging from 5 nM-125 nM for 24 hours (for transcript evaluation) or 48 hours (for protein evaluation). RNA was quantified by Nanodrop 2000 (Thermo Scientific). cDNAs were synthesized from 140-400 ng RNA using Maxima First strand cDNA synthesis kit using a mix of oligo dT and random hexamers (Thermo Scientific) in 20 uL reaction at 25° C. for 10 min, 50° C. for 15 min then 85° C. for 5 min. Quantitative PCR was performed using Taqman Fast Advanced master mix (Thermo Scientific) in 20 uL with 4 uL of cDNA reaction and primers specific for each genes. The PCR steps were as follows: 95° C. for 20 sec then 40 cycles of 95° C. for 1 sec, 55° C. for 20 sec. The sequence of primers were, for WT human HTT, forward, 5′-[…]-3′ (SEQ ID NO: 1); reverse, 5′-[…]-3′ (SEQ ID NO: 2) and sequence of probe was 56-FAM/TTG TGA AAT/ZEN/TCG TGG TGG CAA CCC/3IABKFQ/(SEQ ID NO: 8), for HTT novel exon, forward, 5′-[…]-3′ (SEQ ID NO: 3); reverse, 5′-[…]-3′ (SEQ ID NO: 4) and sequence of probe/56-FAM/AAT TCG TGG/ZEN/TGG CAA CCC TTG AGA/3IABKFQ/(SEQ ID NO: 7). Relative quantification of gene expression was performed using 2-AACT method. Fold changes in the mRNA expression level was calculated following normalization to […] glucuronidase beta (Gusb) as an endogenous reference (FIGS. 2a and 2b).

Huntingtin protein = test: In vitro evaluation in SH-SY5Y cells: Huntingtin protein by Western blot; type: cell-based, human; conditions: 48 hours
Protocol: (§1) Cultured human neuroblastoma (SH-SY5Y cell line) cells were treated at doses ranging from 5 nM-125 nM for 24 hours (for transcript evaluation) or 48 hours (for protein evaluation). RNA was quantified by Nanodrop 2000 (Thermo Scientific). cDNAs were synthesized from 140-400 ng RNA using Maxima First strand cDNA synthesis kit using a mix of oligo dT and random hexamers (Thermo Scientific) in 20 uL reaction at 25° C. for 10 min, 50° C. for 15 min then 85° C. for 5 min. Quantitative PCR was performed using Taqman Fast Advanced master mix (Thermo Scientific) in 20 uL with 4 uL of cDNA reaction and primers specific for each genes. The PCR steps were as follows: 95° C. for 20 sec then 40 cycles of 95° C. for 1 sec, 55° C. for 20 sec. […] Relative quantification of gene expression was performed using 2-AACT method. Fold changes in the mRNA expression level was calculated following normalization to […] glucuronidase beta (Gusb) as an endogenous reference (FIGS. 2a and 2b).
For protein analysis, cells were lysed in RIPA buffer with protease and phosphatase inhibitor (Thermo Scientific). […] Total protein concentration was quantified using the BCA protein Assay (Thermo Scientific). […] Protein bands were quantified by Image J.

[1] = test system: endogenous mouse HTT transcript or protein; test: BacHD mice: effect on endogenous mouse HTT; type: in vivo
Protocol: as §1, with “Total RNA from cerebrum and cerebellum was extracted using RNeasy Plus kit (Qiagen) after homogenized in Precellys” for “Cultured human neuroblastoma (SH-SY5Y cell line) cells were treated”, “6000 rpm for 40 sec. RNA” for “doses ranging”, “blood was extracted using PAXgene blood RNA kit (Qiagen) according to manufacturer protocol. The” for “5 nM-125 nM for 24 hours (for transcript evaluation) or 48 hours (for protein evaluation).”, “2^−ΔΔCT” for “2-AACT”, “reference.” for “reference (FIGS. 2a and 2b).”
Snap-frozen mouse tissue samples were homogenized in RIPA buffer with protease and phosphatase inhibitor (Thermo Scientific) by Precellys at 6000 rpm for 40 sec. […] Total protein concentration was quantified using the BCA protein Assay (Thermo Scientific). […] Protein bands were quantified by Image J.

mHTT = test: Mutant and total HTT multiplex HTRF assay in Q48 HTT human embryonic stem cell line: mHTT; type: cell-based; conditions: Q48 HTT hESC, 48 hours
Method in brief: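 Q48 HTT hESCs from HD donors were treated with compound for 48 h at 37 °C after 24 h adherence, then lysed. Lysates were read by multiplex HTRF with N-terminal donor, polyQ (MW1) and post-polyQ (MAB2166) antibodies for 4-6 h at RT. Donor/acceptor ratios give relative mHTT and tHTT; pIC50 reported.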

Adult ACAT/PBPK model = test: Adult ACAT/PBPK model; parameters: species or system human; conditions: pediatric value entered
Protocol: To scale up the branaplam pediatric ACAT/PBPK model to an adult ACAT/PBPK model, adult CL projected from nonclinical species was applied to replace the pediatric CL, and the body weight of 70 kg was used. Dose volume was set 250 mL. The distribution parameters estimated for the pediatric patients were entered to the adult PK model. […] Model predictions of branaplam exposures after single oral administration of branaplam to adults are depicted in Table 5.

With `CC1(C)CC(Oc2ccc(-c3ccc(-c4cn[nH]c4)cc3O)nn2)CC(C)(C)N1` [Compound 18, 5-(1H-pyrazol-4-yl)-2-(6-((2,2,6,6-tetramethylpiperidin-4-yl)oxy)pyridazin-3-yl)phenol] the “increase in novel-exon-containing HTT transcript” value (HTT transcript; 5 nM-125 nM) was 100-500 fold, the “lowering of total Huntingtin transcript” value (HTT transcript; 5 nM-125 nM) was 30-90 % of normal endogenous levels and the EC50 (HTT transcript; Homo sapiens, read-out: EC50 for lowering of HTT transcript) was 20 to 25 nM. The “reduction of normal Huntingtin protein” value (Huntingtin protein; 5 nM-125 nM, Western blot) was 50-70%, the EC50 (Huntingtin protein; read-out: EC50 for HTT protein lowering) was 10 to 25 nM and the “effect on endogenous mouse HTT transcript or protein” value [1] was “no lowering effect”. The “Rating (based on mHTT potency)” value (mHTT) was “**** (a pIC50 value between 7.0 and 7.5 is indicated by four stars (****))”, the “mHTT pIC50” value (mHTT) was 7.2795 and the Vc (Adult ACAT/PBPK model) was 3.62 (Optimized value using GastroPlus ™ based on the 1/h. For the same molecule, the k12 (Adult ACAT/PBPK model) was 1.41 (Optimized value using GastroPlus ™ based on the 1/h and the k21 (Adult ACAT/PBPK model) was 0.144 (Optimized value using GastroPlus ™ based on the 1/h.
